This note sets out measurements from patent US20260185163A1, “MEN1 MUTATIONS AND USES THEREOF” (DANA-FARBER CANCER INSTITUTE, INC., priority 2022, published 2026).

In assay [1] the test system is MEN1 M327I/M327I MV4;11 cells. The experiment in a line: dose-response assay, viable cell counts by flow cytometry. It counts as cell-based. The conditions noted are these: Homo sapiens, 240 h; MV4;11 MEN1 M327I/M327I, 10 d of treatment. The method, then:
MV4;11 and OCI-AML3 cell lines were passaged 24 h prior to nucleofection. The guide RNA (150 μmol) (sequence: 5′-[…]-3′) was added to Alt-R S.p. HiFi Cas9 nuclease (Integrated DNA Technologies) (125 μmol) followed by an incubation at room temperature (RT) for 20 min to allow formation of ribonucleoprotein (RNP) complexes. 2×10^5 cells were sedimented at 200 g for 10 min at RT, washed with PBS and resuspended in the SG Cell Line Nucleofector™ Solution (Lonza). […] Cells were replated in fresh medium+drug every 3 days and viable cells were counted using the LSRFortessa™ (BD Biosciences) flow cytometer. Cumulative cell growth was calculated over 28 days. […]
(§1) To determine Menin-inhibitor responses of MOLM13, MV4;11 or OCI-AML3 cell lines expressing MEN1 mutants, 3×10^3 cells were plated per well in a non-tissue culture treated 96-well plate. […] After 6 days, cells were split 1:7 and counts of viable cells in each well were determined after 10 d of treatment by flow cytometry (LSRFortessa™ with High-throughput sampler (HTS), BD Biosciences). Relative cell counts were calculated as % of DMSO control. The average of each triplicate was calculated and the mean of all replicates was plotted. […]
A general note: In flow cytometry, cells or beads pass a laser one at a time.

Assay [2] has as its system M327I- and T349M-mutant MV4;11 cells. Described as above. It counts as cell-based, human. The method, then: (§2) MV4;11 and OCI-AML3 cell lines were passaged 24 h prior to nucleofection. The guide RNA (150 μmol) (sequence: 5′-[…]-3′) was added to Alt-R S.p. HiFi Cas9 nuclease (Integrated DNA Technologies) (125 μmol) followed by an incubation at room temperature (RT) for 20 min to allow formation of ribonucleoprotein (RNP) complexes. 2×10^5 cells were sedimented at 200 g for 10 min at RT, washed with PBS and resuspended in the SG Cell Line Nucleofector™ Solution (Lonza). Cells, Alt-R™ Cas9 Electroporation Enhancer (Lonza) (120 μmol) and the HDR donor oligonucleotide containing the MEN1-M327I mutation as well as a silent mutation at the protospacer adjacent motif (PAM) site (120 μmol) (sequence:5′-[…]-3′) were added to the RNP complex. For wildtype (WT) control, phosphate buffered saline (PBS) (Gibco™, Fisher Scientific) was added to the resuspended cells. Nucleofection was performed using a 16-well 20 μl Nucleocuvette™ stripe (Lonza) in a 4D-Nucleofector™ X Unit (Lonza) (program FF-100). Cells were incubated overnight in RPMI-1640+10% FCS+1% P/S containing 1 μM Alt-R™ HDR enhancer V2 (Lonza) (or DMSO for WT control). The following day, the medium was replaced by RPMI-1640+10% FBS+1% P/S. Single clones were selected in methylcellulose (MethoCult™ M3234, Stemcell™ Technologies) supplemented with 10% RPMI-1640, 10% FBS, 1% P/S and 25 nM SNDX-5613 (or DMSO for WT control), starting 3 days after nucleofection, and expanded in RPMI-1640+10% FCS+1% P/S supplemented with 25 nM SNDX-5613 (or DMSO for WT control). For the in vitro clonal selection assay of bulk nucleofected cells over time, 5×10^3 cells (3 replicates per condition) were seeded in RPMI-1640+10% FBS+1% P/S supplemented with 50 nM SNDX-5613 (or DMSO for WT control) 3 days after nucleofection. Cells were replated in fresh medium+drug every 3 days and viable cells were counted using the LSRFortessa™ (BD Biosciences) flow cytometer. Cumulative cell growth was calculated over 28 days. At each timepoint, cell pellets were frozen and genomic DNA was extracted subsequently using the DNeasy Blood and Tissue Kit™ (QIAGEN). Digital droplet-based PCR was performed from the genomic DNA to assess editing efficiency in the bulk cells over time. To analyze HDR efficiency in single cell clones, genomic DNA was PCR amplified using the Q5 High-Fidelity 2× Master Mix™ (New England BioLabs) and primers (forward: 5′-[…]-3′; reverse: 5′-[…]-3′), and the resulting 641 bp fragment containing the Cas9 cut site was gel-purified using the QIAquick Gel Extraction Kit™ (QIAGEN). Sanger sequencing was used to analyze HDR efficiency (primer 5′-[…]-3′).
(§3) To determine Menin-inhibitor responses of MOLM13, MV4;11 or OCI-AML3 cell lines expressing MEN1 mutants, 3×10^3 cells were plated per well in a non-tissue culture treated 96-well plate. The Menin-inhibitors were titrated on these cells in the following dose-range: DMSO, 3.9 nM, 7.813 nM, 15.625 nM, […], 62.5 nM, 125 nM, 250 nM, 500 nM, 1000 nM. Cells were treated in triplicates on each plate and the experiment was repeated 4 times. After 6 days, cells were split 1:7 and counts of viable cells in each well were determined after 10 d of treatment by flow cytometry (LSRFortessa™ with High-throughput sampler (HTS), BD Biosciences). Relative cell counts were calculated as % of DMSO control. The average of each triplicate was calculated and the mean of all replicates was plotted. Error bars represent the standard error of means (SEM).

Assay [3] has as its system M327I- and T349M-mutant OCI-AML3 cells. The assay is described as above. It counts as cell-based, human. The method, then:
as §2, §3

In assay [4] the test system is MOLM13 (MLL::AF9), MV4;11 (MLL::AF4) and OCI-AML3 (NPM1c) cells expressing MEN1-M327I, -G331R and -T349M. The experiment in a line: dose-response assay after lentiviral expression of MEN1 mutants. It counts as cell-based, human. The conditions noted are these: viable cells after 10 days of drug treatment. The method, then:
Cell lines were obtained from the “American Type Culture Collection” (ATCC) or the “Deutsche Sammlung von Mikroorganismen und Zellkulturen” (DSMZ) and cultured in RPMI-1640™ (for MOLM13, MV4;11 and OCI-AML3) or DMEM™ (for HEK-293T)+10% fetal bovine serum (FBS)+1% penicillin/streptomycin (P/S) (Life Technologies/Thermo Fisher Scientific) at 37° C., 5% CO2 atmosphere and 95% humidity. Cell lines were tested and maintained mycoplasma negative throughout all experiments. […]
as §1

The test system of assay [5] is CRISPR-Cas9 M327I-edited MV4;11 and OCI-AML3 cells. The experiment in a line: in vitro clonal selection assay, growth of bulk cell populations. The settings on record: 50 nM. It counts as cell-based, human. The method, then: (§4) MV4;11 and OCI-AML3 cell lines were passaged 24 h prior to nucleofection. The guide RNA (150 μmol) (sequence: 5′-[…]-3′) was added to Alt-R S.p. HiFi Cas9 nuclease (Integrated DNA Technologies) (125 μmol) followed by an incubation at room temperature (RT) for 20 min to allow formation of ribonucleoprotein (RNP) complexes. 2×10^5 cells were sedimented at 200 g for 10 min at RT, washed with PBS and resuspended in the SG Cell Line Nucleofector™ Solution (Lonza). Cells, Alt-R™ Cas9 Electroporation Enhancer (Lonza) (120 μmol) and the HDR donor oligonucleotide containing the MEN1-M327I mutation as well as a silent mutation at the protospacer adjacent motif (PAM) site (120 μmol) (sequence:5′-[…]-3′) were added to the RNP complex. For wildtype (WT) control, phosphate buffered saline (PBS) (Gibco™, Fisher Scientific) was added to the resuspended cells. Nucleofection was performed using a 16-well 20 μl Nucleocuvette™ stripe (Lonza) in a 4D-Nucleofector™ X Unit (Lonza) (program FF-100). Cells were incubated overnight in RPMI-1640+10% FCS+1% P/S containing 1 μM Alt-R™ HDR enhancer V2 (Lonza) (or DMSO for WT control). […] Cells were replated in fresh medium+drug every 3 days and viable cells were counted using the LSRFortessa™ (BD Biosciences) flow cytometer. Cumulative cell growth was calculated over 28 days. […]

The subject of assay [6] is unedited MV4;11 and OCI-AML3 cells. The description is as above. It counts as cell-based, human. The conditions noted are these: 50 nM. The method, then: as §4

Entries after “also recorded” stand apart in the source; their conditions may differ.

The IC50 is the midpoint of a concentration-inhibition curve. `CCN(C(=O)c1cc(F)ccc1Oc1cncnc1N1CC2(CCN(C[C@H]3CC[C@H](NS(=O)(=O)CC)CC3)CC2)C1)C(C)C` [SNDX-5613, revumenib] gave an IC50 in assay [1] of more than 1 µM. The sensitivity entry in assay [2] and in assay [3] was “reduced sensitivity” in each case. Moreover, the “drug sensitivity / resistance phenotype” value in assay [4] was “robust decrease in SNDX-5613 sensitivity; also recorded: sufficient to establish resistance”. The cell growth entry in assay [5] is reported as “continued growing beyond 28 days”; in assay [6], “stopped dividing shortly after exposure”.
As to `CNc1nc(NC2CCN(Cc3ccc4c(cc(C#N)n4CC45CC(NC=O)(C4)C5)c3C)CC2)c2cc(CC(F)(F)F)sc2n1` [MI-3454], the sensitivity entry in assay [2] and in assay [3] was “reduced sensitivity” each time. In assay [4], the “drug sensitivity / resistance phenotype” value was “resistance phenotype could similarly be observed”.
